≈ marks a conversion by molar mass, not a printed value.
Assays:
[1] = Antimicrobial activity against Streptococcus Group C clinical isolates assessed as resistant isolates by broth microdilution method; type: functional, Streptococcus sp. 'group C'
Streptococcus pneumoniae [2] = assay: Antimicrobial activity against penicillin-susceptible Streptococcus pneumoniae clinical isolates assessed as resistant isolates by broth microdilution method; type: functional
Staphylococcus aureus [3] = assay: Antimicrobial activity against oxacillin-susceptible Staphylococcus aureus clinical isolates by broth microdilution method; type: functional
[4] = test system: Staphylococcus haemolyticus; assay: Antimicrobial activity against oxacillin-susceptible Staphylococcus haemolyticus clinical isolates assessed as resistant isolates by broth microdilution method; type: functional
Staphylococcus aureus [5] = assay: Antimicrobial activity against oxacillin-susceptible Staphylococcus aureus clinical isolates assessed as resistant isolates by broth microdilution method; type: functional
Staphylococcus aureus [6] = assay: Antimicrobial activity against Staphylococcus aureus clinical isolates assessed as percent susceptible isolates by broth microdilution method; type: functional
[7] = Antimicrobial activity against erythromycin-nonsusceptible Streptococcus Group C clinical isolates assessed as percent susceptible isolates by broth microdilution method; type: functional, Streptococcus sp. 'group C'
Staphylococcus aureus [8] = assay: Antimicrobial activity against oxacillin-resistant Staphylococcus aureus clinical isolates assessed as percent susceptible isolates by broth microdilution method; type: functional
Streptococcus [9] = assay: Antimicrobial activity against erythromycin-nonsusceptible Streptococcus Group F clinical isolates assessed as percent susceptible isolates by broth microdilution method; type: functional
Staphylococcus aureus [10] = assay: Antimicrobial activity against Staphylococcus aureus clinical isolates assessed as resistant isolates by broth microdilution method; type: functional
[11] = Antimicrobial activity against erythromycin-nonsusceptible Streptococcus Group C clinical isolates assessed as resistant isolates by broth microdilution method; type: functional, Streptococcus sp. 'group C'
[12] = test system: Staphylococcus epidermidis; assay: Antimicrobial activity against oxacillin-susceptible Staphylococcus epidermidis clinical isolates by broth microdilution method; type: functional
[13] = test system: Staphylococcus epidermidis; assay: Antimicrobial activity against Staphylococcus epidermidis clinical isolates assessed as resistant isolates by broth microdilution method; type: functional
[14] = test system: Staphylococcus haemolyticus; assay: Antimicrobial activity against Staphylococcus haemolyticus clinical isolates assessed as percent susceptible isolates by broth microdilution method; type: functional
[15] = test system: Staphylococcus haemolyticus; assay: Antimicrobial activity against oxacillin-susceptible Staphylococcus haemolyticus clinical isolates assessed as percent susceptible isolates by broth microdilution method; type: functional
Staphylococcus aureus [16] = assay: Antimicrobial activity against Staphylococcus aureus clinical isolates by broth microdilution method; type: functional
[17] = test system: Staphylococcus epidermidis; assay: Antimicrobial activity against oxacillin-susceptible Staphylococcus epidermidis clinical isolates assessed as percent susceptible isolates by broth microdilution method; type: functional
Streptococcus pneumoniae [18] = assay: Antimicrobial activity against penicillin-resistant Streptococcus pneumoniae clinical isolates assessed as resistant isolates by broth microdilution method; type: functional
[19] = test system: Staphylococcus epidermidis; assay: Antimicrobial activity against oxacillin-resistant Staphylococcus epidermidis clinical isolates assessed as percent susceptible isolates by broth microdilution method; type: functional
Streptococcus [20] = assay: Antimicrobial activity against Streptococcus Group F clinical isolates assessed as resistant isolates by broth microdilution method; type: functional
Staphylococcus aureus [21] = assay: Antimicrobial activity against oxacillin-susceptible Staphylococcus aureus clinical isolates assessed as percent susceptible isolates by broth microdilution method; type: functional
Streptococcus pyogenes = assay: Antimicrobial activity against Streptococcus pyogenes clinical isolates assessed as resistant isolates by broth microdilution method; type: functional
Streptococcus [22] = assay: Antimicrobial activity against erythromycin-susceptible Streptococcus Group F clinical isolates assessed as resistant isolates by broth microdilution method; type: functional
Staphylococcus aureus [23] = assay: Antimicrobial activity against oxacillin-resistant Staphylococcus aureus clinical isolates assessed as resistant isolates by broth microdilution method; type: functional
[24] = Antimicrobial activity against erythromycin-nonsusceptible Streptococcus Group G clinical isolates assessed as resistant isolates by broth microdilution method; type: functional, Streptococcus sp. 'group G'
[25] = test system: Staphylococcus epidermidis; assay: Antimicrobial activity against oxacillin-resistant Staphylococcus epidermidis clinical isolates assessed as resistant isolates by broth microdilution method; type: functional
Streptococcus pneumoniae [26] = assay: Antimicrobial activity against Streptococcus pneumoniae clinical isolates assessed as resistant isolates by broth microdilution method; type: functional
[27] = test system: Staphylococcus epidermidis; assay: Antimicrobial activity against Staphylococcus epidermidis clinical isolates by broth microdilution method; type: functional
[28] = Antimicrobial activity against erythromycin-susceptible Streptococcus Group C clinical isolates assessed as resistant isolates by broth microdilution method; type: functional, Streptococcus sp. 'group C'
[29] = test system: Staphylococcus haemolyticus; assay: Antimicrobial activity against oxacillin-resistant Staphylococcus haemolyticus clinical isolates assessed as percent susceptible isolates by broth microdilution method; type: functional
Streptococcus [30] = assay: Antimicrobial activity against erythromycin-nonsusceptible Streptococcus Group F clinical isolates assessed as resistant isolates by broth microdilution method; type: functional
[31] = Antimicrobial activity against erythromycin-susceptible Streptococcus Group G clinical isolates assessed as resistant isolates by broth microdilution method; type: functional, Streptococcus sp. 'group G'
[32] = Antimicrobial activity against Streptococcus Group C clinical isolates assessed as percent susceptible isolates by broth microdilution method; type: functional, Streptococcus sp. 'group C'
Enterococcus faecium [33] = assay: Antimicrobial activity against vancomycin-susceptible Enterococcus faecium clinical isolates assessed as resistant isolates by broth microdilution method; type: functional
[34] = test system: Staphylococcus epidermidis; assay: Antimicrobial activity against oxacillin-resistant Staphylococcus epidermidis clinical isolates by broth microdilution method; type: functional
Enterococcus faecalis [35] = assay: Antimicrobial activity against vancomycin-susceptible Enterococcus faecalis clinical isolates assessed as percent susceptible isolates by broth microdilution method; type: functional
Enterococcus faecium [36] = assay: Antimicrobial activity against Enterococcus faecium expressing VanA gene clinical isolates by broth microdilution method; type: functional
Enterococcus faecium [37] = assay: Antimicrobial activity against vancomycin-nonsusceptible Enterococcus faecium clinical isolates by broth microdilution method; type: functional
Enterococcus faecalis [38] = assay: Antimicrobial activity against Enterococcus faecalis clinical isolates assessed as resistant isolates by broth microdilution method; type: functional
Enterococcus faecium [39] = assay: Antimicrobial activity against vancomycin-nonsusceptible Enterococcus faecium clinical isolates assessed as percent susceptible isolates by broth microdilution method; type: functional
Enterococcus faecium [40] = assay: Antimicrobial activity against Enterococcus faecium expressing VanA gene clinical isolates assessed as percent susceptible isolates by broth microdilution method; type: functional
Enterococcus faecalis [41] = assay: Antimicrobial activity against Enterococcus faecalis expressing VanB gene clinical isolates assessed as resistant isolates by broth microdilution method; type: functional
Enterococcus faecium [42] = assay: Antimicrobial activity against Enterococcus faecium expressing VanB gene clinical isolates by broth microdilution method; type: functional
Enterococcus faecalis [43] = assay: Antimicrobial activity against vancomycin-susceptible Enterococcus faecalis clinical isolates assessed as resistant isolates by broth microdilution method; type: functional
Staphylococcus aureus [44] = assay: Antimicrobial activity against oxacillin-resistant Staphylococcus aureus clinical isolates by broth microdilution method; type: functional
Enterococcus faecalis [45] = assay: Antimicrobial activity against vancomycin-nonsusceptible Enterococcus faecalis clinical isolates assessed as percent susceptible isolates by broth microdilution method; type: functional
Enterococcus faecalis [46] = assay: Antimicrobial activity against Enterococcus faecalis expressing VanB gene clinical isolates by broth microdilution method; type: functional
Enterococcus faecalis [47] = assay: Antimicrobial activity against vancomycin-nonsusceptible Enterococcus faecalis clinical isolates assessed as resistant isolates by broth microdilution method; type: functional
Enterococcus faecalis [48] = assay: Antimicrobial activity against Enterococcus faecalis expressing VanA gene clinical isolates assessed as percent susceptible isolates by broth microdilution method; type: functional
Enterococcus faecium [49] = assay: Antimicrobial activity against Enterococcus faecium clinical isolates assessed as resistant isolates by broth microdilution method; type: functional
Enterococcus faecium [50] = assay: Antimicrobial activity against Enterococcus faecium clinical isolates assessed as percent susceptible isolates by broth microdilution method; type: functional
Enterococcus faecium [51] = assay: Antimicrobial activity against Enterococcus faecium clinical isolates by broth microdilution method; type: functional

SMILES | MIC90 (Staphylococcus aureus [3]) | Activity [4] | Percent of isolates resistant (Staphylococcus aureus [5]) | Activity (Staphylococcus aureus [6]) | Activity [7] | Activity (Staphylococcus aureus [8]) | Activity (Streptococcus [9]) | Percent resistant isolates (Staphylococcus aureus [10]) | MIC90 [12] | Percent of isolates resistant [13] | Activity [14] | Activity [15] | MIC90 (Staphylococcus aureus [16]) | Activity [17] | Activity [19] | Activity (Staphylococcus aureus [21]) | Percent resistant isolates (Staphylococcus aureus [23]) | Percent of isolates resistant [25] | MIC90 [27] | Activity [29] | further results
CCC[C@@H]1C[C@@H](C(=O)N[C@@H]([C@H]2O[C@H](SC)[C@H](O)[C@@H](O)[C@H]2O)[C@H](C)Cl)N(C)C1 [CLINDAMYCIN] | 0.25 µg/mL (≈ 0.588 µM) | 2.8% | 8% | 75.7% | 82.4% | 61.9% | 82.4% | 24.1% | > 2 µg/mL | 34.5% | 70.3% | 95.8% | > 4 µg/mL | 88.2% | 56.3% | 91.8% | 37.9% | 43.3% | > 4 µg/mL | 60.9% | Activity [1]: 3.6%; Percent of isolates resistant (Streptococcus pneumoniae [2]): 2.6%; Activity [11]: 17.6%; Percent of isolates resistant (Streptococcus pneumoniae [18]): 54.1%; Activity (Streptococcus [20]): 3.6%; Activity (Streptococcus pyogenes): 3.9%; Activity (Streptococcus [22]): 0%; Activity [24]: 17.6%; Resistant isolates (Streptococcus pneumoniae [26]): 12.9%; Activity [28]: 0%; Activity (Streptococcus [30]): 17.6%; Activity [31]: 0%; Activity [32]: 96.4%
CN[C@H](CC(C)C)C(=O)N[C@H]1C(=O)N[C@@H](CC(N)=O)C(=O)N[C@H]2C(=O)N[C@H]3C(=O)N[C@H](C(=O)N[C@H](C(=O)O)c4cc(O)cc(O)c4-c4cc3ccc4O)[C@H](O)c3ccc(c(Cl)c3)Oc3cc2cc(c3O[C@@H]2O[C@H](CO)[C@@H](O)[C@H](O)[C@H]2O[C@H]2C[C@](C)(N)[C@H](O)[C@H](C)O2)Oc2ccc(cc2Cl)[C@H]1O [VANCOMYCIN] | 1 µg/mL (≈ 0.69 µM) | 0% | 0% | 100% | 100% | 100% | 100% | 0% | 2 µg/mL (≈ 1.38 µM) | 0% | 100% | 100% | 1 µg/mL (≈ 0.69 µM) | 100% | 100% | 100% | 0% | 0% | 2 µg/mL (≈ 1.38 µM) | 100% | Activity (Enterococcus faecium [33]): 0%; MIC90 [34]: 2 µg/mL (≈ 1.38 µM); Activity (Enterococcus faecalis [35]): 100%; MIC90 (Enterococcus faecium [36]): > 256 µg/mL; MIC90 (Enterococcus faecium [37]): > 256 µg/mL; Activity (Enterococcus faecalis [38]): 4.7%; Activity (Enterococcus faecium [39]): 0%; Activity (Enterococcus faecium [40]): 0%; Activity (Enterococcus faecalis [41]): 100%; MIC90 (Enterococcus faecium [42]): 256 µg/mL (≈ 177 µM); Activity (Enterococcus faecalis [43]): 0%; MIC90 (Staphylococcus aureus [44]): 1 µg/mL (≈ 0.69 µM); Activity (Enterococcus faecalis [45]): 0%; MIC90 (Enterococcus faecalis [46]): > 256 µg/mL; Activity (Enterococcus faecalis [47]): 94.3%; Activity (Enterococcus faecalis [48]): 0%; Activity (Enterococcus faecium [49]): 56.3%; Activity (Enterococcus faecium [50]): 42.7%; MIC90 (Enterococcus faecium [51]): > 256 µg/mL; Activity [32]: 100%
